Source: publication PMC3702004, “Comparison of Intake and Systemic Relative Effect Potencies of Dioxin-like Compounds in Female Mice after a Single Oral Dose” (Environmental Health Perspectives, 2013)

Tests used:
[1] = Body and organ weight, hepatic lipid content; type: in vivo, female C57BL/6 mice; conditions: day 3; for % lipid / g liver: pooled liver samples; for Dose with significant increase in liver weight vs vehicle controls: single oral dose
Procedure: (§1) Animals. Eight-week-old female C57BL/6 mice (Harlan laboratories, Venray, the Netherlands) were randomly assigned to treatment groups (six animals per group) and allowed to acclimate for 1.5 weeks. The animals were housed in groups in standard cages and conditions (23 ± 2°C, 50–60% relative humidity, 12-hr dark/light cycle) with free access to food and water. Mice received a single dose of test compound by oral gavage at a dosing volume of 10 mL/kg body weight (BW). Mice treated with corn oil vehicle (10 mL/kg BW) served as controls. For each congener, five different doses were administered, ranging from 0.5–100 μg/kg BW (TCDD) to 5,000–500,000 µg/kg BW (PCB-153). Detailed information on doses is provided in Supplemental Material, Table S1 (http://dx.doi.org/10.1289/ehp.1206336). On day 3 after dosing, animals were euthanized by CO2/O2 asphyxiation, and blood was immediately collected from the abdominal aorta. The liver, thymus, spleen, and adipose tissue were removed, weighed (liver, thymus, and spleen), snap frozen, and stored at –80°C. All animal treatments were performed with permission of the Animal Ethical Committee (DEC Utrecht) and performed according to the [Law on Animal Experiments (1977)]. Animals were treated humanely and with regard for alleviation of suffering.
Compound analysis. Adipose and liver tissues samples were homogenized in Na2SO4, followed by extraction and clean-up in one step, and then eluted with 200 mL 1:1 hexane:dichloromethane on an open column packed with 40% wt/wt H2SO4-impregnated silica and KOH-silica. Blood plasma samples were extracted on an open column using Chem-Elut (Agilent Technologies, Santa Clara, CA, USA) and then NaCl eluted with 75 mL 3:2 hexane:2-propanol. Clean-up was performed using a miniaturized silica column (as described above), and samples were eluted using 30 mL hexane. Because the samples typically contained high levels of the analytes, only a small fraction was evaporated and analyzed. Prior to evaporation, we spiked a fraction of the samples with ^13C-labeled standards. We checked potential loss of analytes during extraction and clean-up by reextracting the samples using the identical protocol used for the samples. […] Tetradecane was added prior to evaporation. Sample analysis followed the U.S. Environmental Protection Agency Method 1613 ([U.S. Environmental Protection Agency 1994]) using single ion monitoring mode on an Agilent 6809N gas chromatograph (Agilent Technologies) coupled with a Micromass Ultima Autospec Ultra high-resolution mass spectrometer (HRMS; Waters Corp., Milford, MA, USA). Compounds were separated on a 60 m × 0.25 mm DB5-MS column ([…]; J&W Scientific, Folsom, CA, USA). The HRMS was operated with electron impact ionization with electron energy of 35 eV and an ion source temperature of 250°C. To reduce the number of analyses, samples were pooled before clean-up. […] This method was used because full congener–specific separation could be achieved on the high-resolution GC–HRMS. For lipid determination, samples were evaporated to dryness after the extraction step, and the amount of lipids was determined gravimetrically. Concentrations were calculated based on lipid weight and wet weight. The analysis of samples for the PCB-118 5,000 μg/kg BW dose failed during the procedure; thus analysis for this group could not be completed.
Statistical analysis. Statistical significant differences of the means and variances were determined using one-way analysis of variance (ANOVA) followed by Tukey-Kramer multiple comparisons. Differences were considered statistically significant at p < 0.05. Statistical calculations were performed using GraphPad 6.01 (GraphPad Software Inc.).

[2] = system: hepatic CYP1A1 activity (ethoxyresorufin-O-deethylase, EROD); experiment: Hepatic EROD activity in hepatic microsomal fractions after single oral dose; type: in vivo, female C57BL/6 mice; conditions: for BMR20TCDD Liver EROD activity: 3 days after single oral dose; for REP Liver EROD activity: relative to TCDD
Procedure: as §1
EROD activity. We determined hepatic CYP1A1 activity using ethoxyresorufin-O-deethylase (EROD) activity in hepatic microsomal fractions as described by [Schulz et al. (2012)].
Data analysis. We obtained concentration–response curves using a sigmoidal dose–response nonlinear regression curve fit with variable slope (GraphPad Prism 6.01; GraphPad Software Inc., San Diego, CA, USA):
In this Hill equation, y is the dependent variable (EROD activity or fold induction of mRNA levels), x the independent variable (administered or systemic dose), E0 is the estimated background response level, Emax is the maximum response, b is the estimated median effective concentration (EC50), and n is the shaping parameter of the Hill curve.
Using the congener-specific BMR20TCDD concentration, REPs were calculated relatively to TCDD: […]

Question: Which results are given for `Clc1cc2oc3c(Cl)c(Cl)c(Cl)cc3c2cc1Cl` [Congener 4-PeCDF, 2,3,4,7,8-pentachlorodibenzofuran]?
Answer: Body weight ([1]; oral dose 5 µg/kg bw): 19.3 ± 1.2 gram; Liver weight ([1]; oral dose 5 µg/kg bw): 5.37 ± 0.32 % of bw; Spleen weight ([1]; oral dose 5 µg/kg bw): 0.29 ± 0.05 % of bw; Thymus weight ([1]; oral dose 5 µg/kg bw): 0.26 ± 0.07 % of bw; % lipid / g liver ([1]; oral dose 5 µg/kg bw): 3.6%; Body weight ([1]; oral dose 25 µg/kg bw): 19.0 ± 1.1 gram; Liver weight ([1]; oral dose 25 µg/kg bw): 5.32 ± 0.19 % of bw; Spleen weight ([1]; oral dose 25 µg/kg bw): 0.33 ± 0.04 % of bw; Thymus weight ([1]; oral dose 25 µg/kg bw): 0.24 ± 0.04 % of bw; % lipid / g liver ([1]; oral dose 25 µg/kg bw): 4.5%; Body weight ([1]; oral dose 100 µg/kg bw): 19.2 ± 1.0 gram; Liver weight ([1]; oral dose 100 µg/kg bw): 5.94 ± 0.27 % of bw; Spleen weight ([1]; oral dose 100 µg/kg bw): 0.32 ± 0.03 % of bw; Thymus weight ([1]; oral dose 100 µg/kg bw): 0.22 ± 0.04 % of bw; % lipid / g liver ([1]; oral dose 100 µg/kg bw): 4.5%; Body weight ([1]; oral dose 250 µg/kg bw): 19.8 ± 1.0 gram; Liver weight ([1]; oral dose 250 µg/kg bw): 6.05 ± 0.42 % of bw; Spleen weight ([1]; oral dose 250 µg/kg bw): 0.34 ± 0.04 % of bw; Thymus weight ([1]; oral dose 250 µg/kg bw): 0.23 ± 0.03 % of bw; Body weight ([1]; oral dose 1000 µg/kg bw): 20.2 ± 1.1 gram; Liver weight ([1]; oral dose 1000 µg/kg bw): 6.35 ± 0.30 % of bw; Spleen weight ([1]; oral dose 1000 µg/kg bw): 0.32 ± 0.02 % of bw; Thymus weight ([1]; oral dose 1000 µg/kg bw): 0.22 ± 0.04 % of bw; Dose with significant increase in liver weight vs vehicle controls [1]: ≥ 100 µg/kg BW

Question: Which results are given for `Clc1ccc(-c2cc(Cl)c(Cl)cc2Cl)cc1Cl` [PCB-118, 2,3´,4,4´,5-pentachlorobiphenyl]?
Answer: Body weight ([1]; oral dose 5000 µg/kg bw): 18.3 ± 0.9 gram; Liver weight ([1]; oral dose 5000 µg/kg bw): 5.04 ± 0.22 % of bw; Spleen weight ([1]; oral dose 5000 µg/kg bw): 0.32 ± 0.03 % of bw; Thymus weight ([1]; oral dose 5000 µg/kg bw): 0.27 ± 0.03 % of bw; % lipid / g liver ([1]; oral dose 5000 µg/kg bw): 2.7%; Body weight ([1]; oral dose 15000 µg/kg bw): 18.3 ± 0.8 gram; Liver weight ([1]; oral dose 15000 µg/kg bw): 5.06 ± 0.22 % of bw; Spleen weight ([1]; oral dose 15000 µg/kg bw): 0.33 ± 0.05 % of bw; Thymus weight ([1]; oral dose 15000 µg/kg bw): 0.23 ± 0.04 % of bw; % lipid / g liver ([1]; oral dose 15000 µg/kg bw): 3.3%; Body weight ([1]; oral dose 50000 µg/kg bw): 18.0 ± 1.8 gram; Liver weight ([1]; oral dose 50000 µg/kg bw): 4.87 ± 0.41 % of bw; Spleen weight ([1]; oral dose 50000 µg/kg bw): 0.30 ± 0.03 % of bw; Thymus weight ([1]; oral dose 50000 µg/kg bw): 0.20 ± 0.05 % of bw; % lipid / g liver ([1]; oral dose 50000 µg/kg bw): 3.5%; Body weight ([1]; oral dose 150000 µg/kg bw): 19.2 ± 0.8 gram; Liver weight ([1]; oral dose 150000 µg/kg bw): 6.14 ± 0.45 % of bw; Spleen weight ([1]; oral dose 150000 µg/kg bw): 0.34 ± 0.04 % of bw; Thymus weight ([1]; oral dose 150000 µg/kg bw): 0.21 ± 0.05 % of bw; % lipid / g liver ([1]; oral dose 150000 µg/kg bw): 4.6%; Body weight ([1]; oral dose 500000 µg/kg bw): 19.1 ± 1.0 gram; Liver weight ([1]; oral dose 500000 µg/kg bw): 7.23 ± 0.29 % of bw; Spleen weight ([1]; oral dose 500000 µg/kg bw): 0.31 ± 0.03 % of bw; Thymus weight ([1]; oral dose 500000 µg/kg bw): 0.23 ± 0.04 % of bw; Dose with significant increase in liver weight vs vehicle controls [1]: ≥ 150,000 µg/kg BW; BMR20TCDD Liver EROD activity ([2]; dose metric Adm dose): 55,259 µg/kg BW; BMR20TCDD Liver EROD activity ([2]; dose metric Syst adipose): 359,114 ng/g lipid; BMR20TCDD Liver EROD activity ([2]; dose metric Syst plasma): 311,118 ng/g lipid; REP Liver EROD activity ([2]; dose metric Adm dose (µg/kg BW)): 0.000005; REP Liver EROD activity ([2]; dose metric Syst adipose (ng/g lipid)): 0.000003; REP Liver EROD activity ([2]; dose metric Syst liver (ng/g lipid)): 0.00006; REP Liver EROD activity ([2]; dose metric Syst liver (ng/g liver)): 0.00006; REP Liver EROD activity ([2]; dose metric Syst plasma (ng/g lipid)): 0.000004
